Molecules are shown by their SMILES.

One data set has as its system MMP-1, MMP-2, MMP-3, MMP-9 and MMP-13. As to conditions: prior art compounds, collagenase, gelatinase and stromelysin type MMPs; cited from earlier work.
In the case of `CC1(C)SCCN(S(=O)(=O)c2ccc(Oc3ccncc3)cc2)[C@H]1C(=O)NO` [AG-3340], the “inhibition of MMP-1, MMP-2, MMP-3, MMP-9 and MMP-13 (non-selective)” value is given as “simultaneously inhibit”. On to `COc1ccc(S(=O)(=O)N(Cc2cccnc2)[C@@H](C(=O)NO)C(C)C)cc1` [CGS-27.023A], for which the “inhibition of MMP-1, MMP-2, MMP-3, MMP-9 and MMP-13 (non-selective)” value was “simultaneously inhibit”.

System in another data set: not given
Details: not given
For `COC(=O)c1ccc(Cn2c(=O)c3cc(C(=O)NCc4ccncc4)ccc3n3cnnc23)cc1` [Example 12, Methyl 4-{7-[(pyridin-4-ylmethyl)-carbamoyl]-5-oxo-5H-[1,2,4]triazolo[4,3-a]quinazol-4-ylmethyl}benzoate], the melting point was 235 °C. `O=C(O)c1ccc(Cn2c(=O)c3cc(C(=O)NCc4ccc5c(c4)OCO5)ccc3n3cnnc23)cc1` [Example 22, 4-{7-[(1,3-Benzodioxol-5-ylmethyl)-carbamoyl]-5-oxo-5H-[1,2,4]triazolo[4,3]quinazol-4-ylmethyl}benzoic acid] displayed a melting point of 235 °C. As to `COC(=O)c1ccc(Cn2c(=O)c3cc(C(=O)NCc4ccc(OC)cc4)ccc3n3cnnc23)cc1` [Example 11, Methyl 4-{7-[(4-methoxybenzyl)-carbamoyl]-5-oxo-5H-[1,2,4]triazolo[4,3-a]quinazol-4-ylmethyl}benzoate], the melting point was 210 °C.

Regarding `COC(=O)Cc1ccc(Cn2c(=O)c3cc(C(=O)NCc4ccc(OC)cc4)ccc3n3cnnc23)cc1` [Example 17, Methyl (4-{7-[(4-methoxy)-benzylcarbamoyl]-5-oxo-5H-[1,2,4]triazolo[4,3-a]quinazolin-4-ylmethyl}-phenyl)-acetate], the melting point was determined as 204 °C. Regarding `O=C(O)c1ccc(Cn2c(=O)c3cc(C(=O)NCc4ccc(F)cc4)ccc3n3cnnc23)cc1` [Example 24, 4-{7-[(4-Fluoro)-benzylcarbamoyl]-5-oxo-5H-[1,2,4]triazolo[4,3-a]quinazol-4-ylmethyl}benzoic acid], the melting point is 303 °C. On the same count and under the same terms, under `COc1ccc(CNC(=O)c2ccc3c(c2)c(=O)n(CCOc2ccc(Cl)cc2)c2nncn32)cc1` [Example 20, 4-[2-(4-Chloro-phenoxy)-ethyl]-5-oxo-4,5-dihydro-[1,2,4]triazolo[4,3-a]quinazoline-7-carboxylic acid 4-methoxy-benzylamide] stands 186 °C. In turn, `N#Cc1ccc(Cn2c(=O)c3cc(C(=O)NCc4ccncc4)ccc3n3cnnc23)cc1` [Example 15, N-(pyridin-4-ylmethyl)-4-(4-cyanobenzyl)-5-oxo-4H-[1,2,4]triazolo[4,3-a]quinazol-7-ylcarboxamide] showed a melting point of 300 °C. Take `COc1ccc(CNC(=O)c2ccc3c(c2)c(=O)n(Cc2ccc(CC(=O)O)cc2)c2nncn32)cc1` [Example 25, (4-{7-[(4-Methoxy)-benzylcarbamoyl]-5-oxo-5H-[1,2,4]triazolo[4,3-a]quinazolin-4-ylmethyl}-phenyl)-acetic acid]: the melting point was determined as 268 °C.

Compound `O=C(O)Cc1ccc(Cn2c(=O)c3cc(C(=O)NCc4ccc5c(c4)OCO5)ccc3n3cnnc23)cc1` [Example 26, (4-{7-[(1,3-Benzodioxol-5-ylmethyl)-carbamoyl]-5-oxo-5H-[1,2,4]triazolo[4,3-a]quinazolin-4-ylmethyl}-phenyl)-acetic acid] showed a melting point of 232 °C. The same measure, in the same setting: under `O=C(O)c1ccc(Cn2c(=O)c3cc(C(=O)NCc4ccncc4)ccc3n3cnnc23)cc1` [Example 23, 4-{7-[(Pyridin-4-ylmethyl)-carbamoyl]-5-oxo-5H-[1,2,4]triazolo[4,3-a]quinazol-4-ylmethyl}benzoic acid] stands 255 °C; under `CN(C)CCOC(=O)c1ccc(Cn2c(=O)c3cc(C(=O)NCc4ccc(F)cc4)ccc3n3cnnc23)cc1` [Example 13, (2-Dimethylamino-ethyl) 4-[7-(4-fluoro-benzylcarbamoyl)-5-oxo-5H-[1,2,4]triazolo[4,3-a]quinazol-4-ylmethyl]benzoate], 175 °C; under `O=C(NCc1ccncc1)c1ccc2c(c1)c(=O)n(C/C=C/c1ccncc1)c1nncn21` [Example 19, N-(pyridin-4-ylmethyl) 4-[3-(pyridin-4-yl)-2-propen-1-yl]-5-oxo-4H-[1,2,4]triazolo[4,3-a]quinazol-7-ylcarboxamide], 250 °C. `COC(=O)c1ccc(Cn2c(=O)c3cc(C(=O)NCc4ccc5c(c4)OCO5)ccc3n3cnnc23)cc1` [Example 10, Methyl 4-{7-[(1,3-benzodioxol-5-ylmethyl)-carbamoyl]-5-oxo-5H-[1,2,4]triazolo[4,3-a]quinazol-4-ylmethyl}benzoate]: the melting point worked out at 248 °C.

The values above are taken from US6849637B2, “Triazolo compounds as MMP inhibitors” (Warner-Lambert Company, priority 2001, dated 2005).
